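Cells were grown in 96-well plates and exposed to each compound for 48 hours at five concentrations; endpoints were interpolated linearly between bracketing concentrations, or set to the highest concentration if not reached. The concentration for 50% growth inhibition is given as GI50.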 Activity calls are given as the source filed them. Cut-off read from the data, not from the text of the source: active = GI50 up to about 1.1 µM and inactive = higher.
Assays:
Experiment in all cases: growth of human tumour cells (NCI), 48 h
OVCAR-8 = system: OVCAR-8
786-0 = system: 786-0
SR = system: SR
TK-10 = system: TK-10
SNB-75 = system: SNB-75
SK-MEL-2 = system: SK-MEL-2
ACHN = system: ACHN
A498 = system: A498
CAKI-1 = system: CAKI-1
UACC-62 = system: UACC-62
LOX IMVI = system: LOX IMVI
SF-268 = system: SF-268
CCRF-CEM = system: CCRF-CEM
SK-MEL-28 = system: SK-MEL-28
HT-29 = system: HT-29
SW-620 = system: SW-620
COLO 205 = system: COLO 205
HCT-116 = system: HCT-116

Measured: GI50

O=c1c(-c2ccccc2)c(O)nc2[nH]c3ccccc3n12
inactive: OVCAR-8 > 100 µM | 786-0 > 100 µM | SR 68.1 µM | TK-10 > 100 µM | SNB-75 > 100 µM | SK-MEL-2 > 100 µM | ACHN > 100 µM | A498 > 100 µM | CAKI-1 > 100 µM | UACC-62 > 100 µM | LOX IMVI > 100 µM | SF-268 > 100 µM | CCRF-CEM > 100 µM | SK-MEL-28 > 100 µM | HT-29 > 100 µM | SW-620 > 100 µM | COLO 205 > 100 µM | HCT-116 > 100 µM

Cc1cccc2c1N(C(=O)/C=C\C(=O)O)C(c1c(C)[nH]c3ccccc13)C2 (centres undefined)
inactive: OVCAR-8 55.6 µM | 786-0 40.8 µM | SR 31 µM | TK-10 73.5 µM | SNB-75 > 10 µM | SK-MEL-2 19.9 µM | ACHN 84.3 µM | A498 > 100 µM | CAKI-1 30.3 µM | UACC-62 18.9 µM | SF-268 > 10 µM | CCRF-CEM 34.8 µM | SK-MEL-28 21.9 µM | HT-29 > 100 µM | SW-620 28.4 µM | COLO 205 > 10 µM | HCT-116 23.2 µM

COC(=O)CSc1nnc(-c2ccc(O)c([N+](=O)[O-])c2)[nH]1
inactive: OVCAR-8 > 100 µM | 786-0 > 100 µM | SR > 100 µM | TK-10 > 100 µM | SNB-75 > 100 µM | SK-MEL-2 > 100 µM | ACHN > 100 µM | A498 > 100 µM | CAKI-1 > 100 µM | UACC-62 > 100 µM | LOX IMVI > 100 µM | SF-268 > 100 µM | CCRF-CEM > 100 µM | SK-MEL-28 > 100 µM | HT-29 > 100 µM | SW-620 > 100 µM | HCT-116 > 100 µM

COc1ccc(OC)c2[s+]snc12
inactive: OVCAR-8 31.7 µM | 786-0 > 100 µM | SR 64.9 µM | TK-10 > 100 µM | SNB-75 93.5 µM | SK-MEL-2 33.8 µM | ACHN 91.2 µM | A498 > 100 µM | CAKI-1 > 100 µM | UACC-62 26.6 µM | LOX IMVI 35.6 µM | SF-268 52.6 µM | CCRF-CEM 36.1 µM | SK-MEL-28 83.8 µM | HT-29 > 100 µM | SW-620 68.2 µM | COLO 205 > 100 µM | HCT-116 57.7 µM

O=C(NC12CC3CCC1CC(C3)C2)[C@@H]1CCCN1C(=O)OCc1ccccc1 (some centres undefined)
inactive: OVCAR-8 50.5 µM | 786-0 76.7 µM | SR 34.4 µM | TK-10 85.5 µM | SNB-75 26.7 µM | SK-MEL-2 40.6 µM | ACHN 44 µM | A498 27.9 µM | UACC-62 83.6 µM | LOX IMVI 59 µM | SF-268 94.8 µM | CCRF-CEM 36.5 µM | SK-MEL-28 31.1 µM | HT-29 36.5 µM | SW-620 77.3 µM | COLO 205 33.5 µM | HCT-116 58.9 µM

COC(=O)C12C3C4C5C3(C#N)C1C5(C(=O)OC)C42C(=O)N(C(C)C)C(C)C (centres undefined)
inactive: OVCAR-8 > 63 µM | 786-0 > 100 µM | SR 13.9 µM | TK-10 > 100 µM | SNB-75 > 100 µM | SK-MEL-2 > 100 µM | ACHN > 100 µM | A498 > 100 µM | CAKI-1 > 100 µM | UACC-62 > 100 µM | LOX IMVI 58.1 µM | SF-268 > 100 µM | CCRF-CEM > 46 µM | SK-MEL-28 > 100 µM | HT-29 > 100 µM | SW-620 > 26.7 µM | COLO 205 > 60.4 µM | HCT-116 39.9 µM

CSc1nc(NC2OC(COC(C)=O)C(OC(C)=O)C(OC(C)=O)C2OC(C)=O)c(-c2csc(N)n2)c(=O)n1C (centres undefined)
inactive: OVCAR-8 26.1 µM | 786-0 18.5 µM | SR > 100 µM | TK-10 > 100 µM | SNB-75 18 µM | SK-MEL-2 28.6 µM | ACHN 31.5 µM | A498 > 100 µM | CAKI-1 31.3 µM | UACC-62 26.1 µM | LOX IMVI 93.3 µM | SF-268 22.5 µM | CCRF-CEM > 100 µM | SK-MEL-28 37.7 µM | HT-29 > 100 µM | SW-620 > 100 µM | COLO 205 > 100 µM | HCT-116 31 µM

COC(=O)/C=C/C1C2C3(CCC(C)C12C)OCCS3 (centres undefined)
inactive: OVCAR-8 > 100 µM | 786-0 > 100 µM | SR 43.1 µM | TK-10 > 100 µM | SNB-75 > 100 µM | SK-MEL-2 > 100 µM | ACHN > 100 µM | A498 > 100 µM | LOX IMVI > 100 µM | SF-268 > 100 µM | CCRF-CEM 34.3 µM | SK-MEL-28 > 100 µM | HT-29 > 100 µM | SW-620 > 100 µM | COLO 205 > 100 µM | HCT-116 > 100 µM
